What all share (experiment): MIC by agar plate dilution method on standard strains (Example 3)
Assay type in all cases: cell-based
Holding throughout (conditions): read-out: MIC

Assay [1] concerns Moraxella (Branhamella) catarrhalis ATCC25240. The protocol:
(§1) Drug solutions at a concentration 10 times as high as the maximum applicable concentration were prepared as original solutions of test drugs given in Table 2 (as to solvents used for this purpose, reference should be made also to Table 2). Serial two-fold dilution series of the original solutions were prepared at desired stages, and 1 ml each of the diluted drug solutions was added to 9 ml of media given in Table 3 to prepare drug plates. […] • 1) Bacterial solutions stocked at −80° C. were inoculated on agar media (as to media used, reference should be made to Table 3), and then incubated at 37° C. overnight. When desired, subculturing was conducted once more on the same agar media (by overnight incubation at 37° C.). • 2) Colonies growing on the agar media were sampled by a platinum loop, suspended in liquid media (reference should be made to Table 3) and statically incubated at 37° C. for 18 hours (preculturing). • 3) Preculturing was continued up to McFarland 0.5 (McFarland 0.5=about 10^8 CFU/ml), and then the culture broths were diluted with Muellar Hinton Broth to make 10^6 CFU/ml. 5 μl each of the diluted solutions were inoculated on the above-mentioned drug plates by an inoculator Microplanter. […] Thus, bacterial solutions at about 10^8 CFU/ml can be easily prepared by use of McFarland 0.5. Bacterial solutions at such a turbidity are commercially available, but can be easily prepared.

Assay [2] deals with Moraxella (Branhamella) catarrhalis ATCC43617. The procedure: as §1
In assay [3] the test system is Pseudomonas aeruginosa ATCC27853. The procedure:
as §1

In assay [4] the test system is Serratia marcescens ATCC13880. The protocol: as §1
The test system of assay [5] is Staphylococcus aureus ATCC29247. The procedure:
as §1

The subject of assay [6] is Staphylococcus aureus ATCC6538P. The procedure:
as §1

Assay [7] deals with Streptococcus agalactiae ATCC13813. The procedure:
as §1

Assay [8] deals with Streptococcus pneumoniae ATCC49619. The procedure:
as §1

For assay [9], the system named is Streptococcus pneumoniae ATCC6301. The protocol: as §1
Assay [10] concerns Streptococcus pneumoniae ATCC6302. The procedure:
as §1

The subject of assay [11] is Streptococcus pneumoniae ATCC6303. The protocol: as §1
Assay [12] concerns Streptococcus pneumoniae ATCC6306. The protocol:
as §1

The subject of assay [13] is Streptococcus pyogenes ATCC12344. The protocol: as §1
Assay [14] relates to Streptococcus pyogenes ATCC12353. The procedure: as §1
For assay [15], the system named is Streptococcus pyogenes ATCC12385. The protocol:
as §1

Values after ≈ are worked out from the molar mass of the structure shown. Where only a bound is given, the exact number is not on record here.

Consider `CC[C@H]1OC(=O)[C@H](C)[C@@H](O[C@H]2C[C@@](C)(OC)[C@@H](O)[C@H](C)O2)[C@H](C)[C@@H](O[C@@H]2O[C@H](C)C[C@H](N(C)C)[C@H]2O)[C@](C)(OC)C[C@@H](C)C(=O)[C@H](C)[C@@H](O)[C@]1(C)O` [CAM, Clarithromycin], for which the minimal inhibitory concentration (MIC) was 0.2 µg/mL (≈ 0.267 µM) in [1]; 0.2 µg/mL (≈ 0.267 µM) in assay [2]; > 100 µg/mL in assay [3]; > 100 µg/mL in assay [4]; 50 µg/mL (≈ 66.8 µM) in assay [5]; 0.2 µg/mL (≈ 0.267 µM) in assay [6]. Besides, the MIC in assay [7] stood at 0.05 µg/mL (≈ 0.0668 µM); in assay [8] it was 0.05 µg/mL (≈ 0.0668 µM); in [9] it was 0.05 µg/mL (≈ 0.0668 µM); in assay [10], 0.1 µg/mL (≈ 0.134 µM); in assay [11], 0.05 µg/mL (≈ 0.0668 µM); in [12] it was 0.1 µg/mL (≈ 0.134 µM). Also, the results for the minimum inhibitory concentration (MIC) in assay [13], in [14] and in assay [15] were 0.05 µg/mL (≈ 0.0668 µM), 0.1 µg/mL (≈ 0.134 µM) and 0.1 µg/mL (≈ 0.134 µM), respectively.

For orientation: MIC means the least concentration at which growth counts as inhibited.

For the origin of these results see US20050175550A1, “Compositions for oral use” (priority 2000, published 2005).
